In this experiment the target is Nonstructural protein 3 (Zika virus, UniProt A0A024AXB9). Briefly: Binding affinity to Zika virus NS2B-NS3 protease.

Each structure is given as a SMILES string.

Nonstructural protein 3, sequence (A0A024AXB9 whole entry): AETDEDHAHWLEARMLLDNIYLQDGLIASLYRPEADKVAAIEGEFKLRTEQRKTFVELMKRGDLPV

A word on the EC50: it is the concentration that produces a half-maximal response. A low value points to an effect from little substance. Turning to `CC1=CCC(C(=O)/N=C2\CC=C(S(=O)(=O)O)c3cc(S(=O)(=O)O)cc(S(=O)(=O)O)c32)=C/C1=N/C(=O)C1=CC=C/C(=N\C(=O)/N=C2\C=CC=C(C(=O)/N=C3/CC(C(=O)/N=C4\CC=C(S(=O)(=O)O)c5cc(S(=O)(=O)O)cc(S(=O)(=O)O)c54)=CC=C3C)C2)C1`, the midpoint of the response, the EC50, lay at 1.93 µM.
